What was measured:
mPTP-inactive Daoy cell = experiment: Inhibitory effect on mPTP-inactive Daoy cell (PPIF shRNA; Promega CellTiter-Glo, intracellular ATP); assay type: cell-based, human; details: Homo sapiens, Daoy, Daoy cell transfected with virus vector carrying PPIF shRNA
From the text: The activity of mitochondria permeability transition pore (mPTP) was regulated by the PPIF protein. […] PPIF protein activity was restricted by the expression level of PPIF protein in cell.

mPTP-active Daoy cell = experiment: Inhibitory effect on mPTP-active Daoy cell (Promega CellTiter-Glo, intracellular ATP); assay type: cell-based, human; details: Homo sapiens, Daoy, Daoy cell transfected with empty virus vector without PPIF shRNA

Row | Structure (SMILES) | IC50 (mPTP-inactive Daoy cell) [µM] | IC50 (mPTP-active Daoy cell) [µM]
1 | [2H]C1c2c(ccc(OC)c2OCCC)C=C2c3cc4c(cc3CCN21)OCO4 (centres unmarked) [AB36437] | 0.54 | 1.37
2 | CCCCCC1=C2c3cc4c(cc3CCN2C(C)c2c1ccc(OC)c2OC)OCO4 (centres unmarked) [AB35422] | 2.59 | 5.27
3 | COc1ccc2c(c1OCc1ccccc1-c1ccccc1)C(C(Cl)(Cl)Cl)N1CCc3cc4c(cc3C1=C2)OCO4 (centres unmarked) [AB35531] | 1.55 | 3.6
4 | COc1ccc2c(c1OCCCBr)CN1CCc3cc4c(cc3C1C2)OCO4 (centres unmarked) [AB31878] | 11 | 10.4
5 | COc1ccc2c(c1OC)CN1CCc3cc4c(cc3C1=C2)OCO4 [AB36463] | 0.88 | 1.95
6 | COc1ccc2c(c1Br)CN1CCc3cc4c(cc3C1=C2)OCO4 [AB36460] | 1.27 | 2.71
7 | COc1ccc2c(c1OCCN1CCCCC1)C(C(Cl)(Cl)Cl)N1CCc3cc4c(cc3C1=C2)OCO4 (centres unmarked) [AB35420] | 4.59 | 9.55
8 | COc1ccc2c(c1NCCc1ccccc1)C(C1CCCC1)N1CCc3cc4c(cc3C1=C2)OCO4 (centres unmarked) [AB35457] | 1.52 | 3.25
9 | COc1ccc2c(c1OCCNC(=O)OC(C)(C)C)C(C)N1CCc3cc4c(cc3C1=C2)OCO4 (centres unmarked) [AB35424] | 6.18 | 13.8
10 | CCCCCCC1=C2c3cc4c(cc3CCN2C(C(Cl)(Cl)Cl)c2c1ccc(OC)c2OC)OCO4 (centres unmarked) [AB35508] | 0.99 | 2.25
11 | COc1ccc2c(c1OCCCCCCCl)C(C1CCCC1)N1CCc3cc4c(cc3C1=C2)OCO4 (centres unmarked) [AB35440] | 1.14 | 2.36
12 | [2H]C([2H])([2H])Oc1c(OC)ccc2c1C([2H])(C1CCCC1)N1CCc3cc4c(cc3C1=C2)OCO4 (centres unmarked) [AB36509] | 0.45 | 2.12
13 | COc1ccc2c(c1OC)C(c1ccccc1)N1CCc3cc4c(cc3C1=C2)OCO4 (centres unmarked) [AB36467] | 4.63 | 12.1
14 | COc1ccc2c(c1OC/C=C(\C)CCC=C(C)C)C(C1CCCC1)N1CCc3cc4c(cc3C1=C2)OCO4 (centres unmarked) [AB35438] | 0.84 | 1.86
15 | COc1ccc2c(c1OC)C(C1CCCC1)N1CCc3cc4c(cc3C1C2)OCO4 (centres unmarked) [AB36497] | 69 | 67.4
16 | COc1ccc2c(c1OC(=O)CC13CC4CC(CC(C4)C1)C3)C(C)N1CCc3cc4c(cc3C1=C2)OCO4 (centres unmarked) [AB31896] | 2.42 | 5.02
17 | COc1ccc2c(c1OC)C(C1CCCCC1=O)N1CCc3cc4c(cc3C1=C2)OCO4 (centres unmarked) [AB36525] | 1.65 | 1.5

Row | Structure (SMILES) | IC50 (mPTP-inactive Daoy cell) [µM] | IC50 (mPTP-active Daoy cell) [µM]
18 | CC1c2c(ccc3c2OCO3)C=C2c3cc4c(cc3CCN21)OCO4 (centres unmarked) [AB35413] | 6.87 | 13.3
19 | COc1ccc2c(c1OC)C(C(Cl)(Cl)Cl)N1CCc3cc4c(cc3C1=C2CCCCCCBr)OCO4 (centres unmarked) [AB35501] | 1.91 | 4.98
20 | COc1ccc2c(c1OCCN(C)C)C(C(Cl)(Cl)Cl)N1CCc3cc4c(cc3C1=C2)OCO4 (centres unmarked) [AB35446] | 17.6 | 16.2
21 | [2H]C([2H])([2H])Oc1c(OC)ccc2c1C(C1CCCC1)N1CCc3cc4c(cc3C1=C2)OCO4 (centres unmarked) [AB36501] | 3.43 | 12.9
22 | COc1ccc2cc3n(c(=O)c2c1OC)CCc1cc2c(cc1-3)OCO2 [AB36496] | > 100 | 86.3
23 | COc1ccc2c(c1OC)C(C1CCCC1)N1CCc3cc4c(cc3C1=C2CCCCCCCl)OCO4 (centres unmarked) [AB35500] | 1.71 | 3.46
24 | CCCC1=C2c3cc4c(cc3CCN2C(C2CCCC2)c2c1ccc1c2OCO1)OCO4 (centres unmarked) [AB36432] | 1.88 | 4.32
25 | CCCOc1c(OC)ccc2c1C(C1CCCC1)N1CCc3cc4c(cc3C1=C2)OCO4 (centres unmarked) [AB35512] | 1.57 | 4.27
26 | COc1ccc2c(c1OCCNC(=O)OC(C)(C)C)C(C(Cl)(Cl)Cl)N1CCc3cc4c(cc3C1=C2)OCO4 (centres unmarked) [AB35416] | 5.11 | 10.6
27 | CCCCCCOc1c(OC)ccc2c1C(C(Cl)(Cl)Cl)N1CCc3cc4c(cc3C1=C2)OCO4 (centres unmarked) [AB35487] | 0.47 | 1.77
28 | COc1ccc2c(c1OCCCCc1ccccc1)C(C(Cl)(Cl)Cl)N1CCc3cc4c(cc3C1=C2)OCO4 (centres unmarked) [AB35535] | 0.18 | 0.59
29 | COc1ccc2c(c1OCCCCOc1ccccc1)C(C1CCCC1)N1CCc3cc4c(cc3C1=C2)OCO4 (centres unmarked) [AB35454] | 1.28 | 2.96
30 | COc1ccc2c(c1OC)C(C)N1CCc3cc4c(cc3C1=C2)OCCO4 (centres unmarked) [AB31898] | 4.43 | 9.54
31 | CCCOc1c(OC)ccc2c1C(C(Cl)(Cl)Cl)N1CCc3cc4c(cc3C1=C2)OCO4 (centres unmarked) [AB35506] | 1.49 | 3.45
32 | COc1ccc2c(c1OCCCc1ccccc1)C(C(Cl)(Cl)Cl)N1CCc3cc4c(cc3C1=C2)OCO4 (centres unmarked) [AB35525] | 0.7 | 2.48
33 | COc1ccc2c(c1NCCc1ccccc1)C(C(Cl)(Cl)Cl)N1CCc3cc4c(cc3C1=C2)OCO4 (centres unmarked) [AB35486] | 0.23 | 0.71
34 | COc1ccc2c(c1OC)C(C(Cl)(Cl)Cl)N1CCc3cc4c(cc3C1=C2Cc1ccccn1)OCO4 (centres unmarked) [AB35447] | 25.7 | 22.9
